The term inhibition denotes the relative decrease from the control value, in per cent.

The record followed here is ChEMBL document CHEMBL4304794.

The source made the active and inactive calls. No cut-off for these calls is given here.

The target in assay [1] is Programmed cell death 1 ligand 1 (Mus musculus) (UniProt Q9EP73). Description: Inhibition of recombinant mouse N-terminal PDL1 (19 to 238 residues) assessed as recovery of mouse splenocyte proliferation at 100 nM by CFSE-based FACS analysis relative to control.
Programmed cell death 1 ligand 1 (Mus musculus), sequence (Q9EP73 whole entry, the tested form may be a part): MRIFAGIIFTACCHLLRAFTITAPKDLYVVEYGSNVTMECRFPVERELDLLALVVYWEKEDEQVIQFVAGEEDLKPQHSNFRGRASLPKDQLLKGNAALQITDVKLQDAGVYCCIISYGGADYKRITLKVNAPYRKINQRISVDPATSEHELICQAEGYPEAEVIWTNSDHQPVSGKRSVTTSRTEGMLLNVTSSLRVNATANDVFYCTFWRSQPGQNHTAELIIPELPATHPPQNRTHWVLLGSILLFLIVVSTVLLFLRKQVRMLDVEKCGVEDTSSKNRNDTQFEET
Assay [2] deals with Programmed cell death protein 1 (Homo sapiens) (UniProt Q15116). The assay can be described thus: Binding affinity to biotinylated recombinant human C-terminal FC -tagged PD1 (25 to 167 residues) at 0.3 to 300 uM by SPR analysis. (SPR reads the build-up and loss of mass on a sensor chip optically.)
Programmed cell death protein 1 (Homo sapiens), sequence (Q15116 whole entry, the tested form may be a part): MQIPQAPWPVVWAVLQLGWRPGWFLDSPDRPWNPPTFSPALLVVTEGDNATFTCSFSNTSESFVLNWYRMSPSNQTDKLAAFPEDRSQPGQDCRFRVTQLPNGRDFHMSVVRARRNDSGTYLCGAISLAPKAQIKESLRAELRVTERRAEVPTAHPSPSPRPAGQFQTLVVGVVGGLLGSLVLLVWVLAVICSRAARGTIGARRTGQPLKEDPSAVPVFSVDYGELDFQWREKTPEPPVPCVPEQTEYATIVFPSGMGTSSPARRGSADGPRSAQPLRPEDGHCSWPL
The target in assay [3] is Programmed cell death 1 ligand 1 (Homo sapiens) (UniProt Q9NZQ7). Description: Inhibition of PDL1 in human […] cells assessed as recovery of mouse splenocyte proliferation at 100 nM by CFSE-based FACS analysis relative to control. Format: cell-based. (Flow cytometry measures light scatter and fluorescence of single cells or particles in a stream.)
Programmed cell death 1 ligand 1 (Homo sapiens), sequence (Q9NZQ7 whole entry): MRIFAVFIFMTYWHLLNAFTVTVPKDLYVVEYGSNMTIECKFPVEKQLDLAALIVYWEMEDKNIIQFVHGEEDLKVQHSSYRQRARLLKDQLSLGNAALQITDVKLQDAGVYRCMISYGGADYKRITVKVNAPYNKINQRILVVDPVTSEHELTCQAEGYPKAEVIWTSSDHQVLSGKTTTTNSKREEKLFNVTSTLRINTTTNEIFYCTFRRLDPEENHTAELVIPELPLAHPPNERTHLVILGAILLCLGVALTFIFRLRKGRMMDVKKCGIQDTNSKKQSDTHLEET

With `NC(=O)C[C@H](N)c1nc([C@@H](N)CO)no1`, the inhibition in assay [1] was found to be 93%. Also, the result in assay [2] was inactive.

As to `C#CC[C@H](NC(=O)N[C@H](C(=O)O)[C@@H](C)O)c1nc(-c2cnccn2)no1`, the inhibition in assay [1] worked out at 92%. Further, in assay [2], the result was inactive.

Turning to `C[C@@H](O)[C@H](NC(=O)N[C@@H](CC(N)=O)C(=O)NNC(=O)[C@@H](N)CO)C(=O)O`, in assay [2], the result was inactive. Also, in assay [3], the inhibition is 68%.
